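Following 48 hours of exposure in 96-well plates, responses at five concentrations were used to interpolate endpoints linearly. Definition used: TGI = concentration required for complete inhibition of growth.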
Experiments:
Assay in all cases: NCI tumour cell line growth inhibition, 48 h
786-0 renal = tested on: 786-0 renal
A498 renal = tested on: A498 renal
A549 NSCLC = tested on: A549 NSCLC
ACHN renal = tested on: ACHN renal
CCRF-CEM leukemia = tested on: CCRF-CEM leukemia
COLO 205 colon = tested on: COLO 205 colon
DMS 114 small cell lung = tested on: DMS 114 small cell lung
EKVX NSCLC = tested on: EKVX NSCLC
HCC-2998 colon = tested on: HCC-2998 colon
HCT-116 colon = tested on: HCT-116 colon
HCT-15 colon = tested on: HCT-15 colon
HL-60(TB) leukemia = tested on: HL-60(TB) leukemia
HOP-18 NSCLC = tested on: HOP-18 NSCLC
HOP-62 NSCLC = tested on: HOP-62 NSCLC
IGROV1 ovarian = tested on: IGROV1 ovarian
K-562 leukemia = tested on: K-562 leukemia
KM12 colon = tested on: KM12 colon
KM20L2 colon = tested on: KM20L2 colon
LOX IMVI melanoma = tested on: LOX IMVI melanoma
LXFL 529 NSCLC = tested on: LXFL 529 NSCLC
M14 melanoma = tested on: M14 melanoma
M19-MEL melanoma = tested on: M19-MEL melanoma
MALME-3M melanoma = tested on: MALME-3M melanoma
MOLT-4 leukemia = tested on: MOLT-4 leukemia
NCI-H226 lung = tested on: NCI-H226 lung
NCI-H23 lung = tested on: NCI-H23 lung
NCI-H460 lung = tested on: NCI-H460 lung
NCI-H522 lung = tested on: NCI-H522 lung
OVCAR-3 ovarian = tested on: OVCAR-3 ovarian
OVCAR-5 ovarian = tested on: OVCAR-5 ovarian
OVCAR-8 ovarian = tested on: OVCAR-8 ovarian
RPMI-8226 leukemia = tested on: RPMI-8226 leukemia
RXF 393 renal = tested on: RXF 393 renal
RXF-631 renal = tested on: RXF-631 renal
SF-268 CNS = tested on: SF-268 CNS
SF-295 CNS = tested on: SF-295 CNS
SF-539 CNS = tested on: SF-539 CNS
SK-MEL-2 melanoma = tested on: SK-MEL-2 melanoma
SK-MEL-28 melanoma = tested on: SK-MEL-28 melanoma
SK-MEL-5 melanoma = tested on: SK-MEL-5 melanoma
SK-OV-3 ovarian = tested on: SK-OV-3 ovarian
SN12C renal = tested on: SN12C renal
SNB-19 CNS = tested on: SNB-19 CNS
SNB-75 CNS = tested on: SNB-75 CNS
SNB-78 CNS = tested on: SNB-78 CNS
SW-620 colon = tested on: SW-620 colon
TK-10 renal = tested on: TK-10 renal
U251 CNS = tested on: U251 CNS
UACC-257 melanoma = tested on: UACC-257 melanoma
UACC-62 melanoma = tested on: UACC-62 melanoma
UO-31 renal = tested on: UO-31 renal

Measured: TGI

Cc1c(C)c2cc3c(=O)c(CCl)coc3c(C)c2oc1=O
> 100 µM: all assays above
